One assay relates to glioblastoma. Nature of the assay: Glioblastoma model, survival. It counts as in vivo. The following applies: day 100 after tumor inoculation, same dose and schedule.
A further assay relates to E. coli ATCC 25922. Nature of the assay: Sepsis (septicemia) model in mice. It counts as in vivo. The protocol:
Sepsis (septicemia) model: Escherichia coli O157 was chosen as a model infection being one of the most common nosocomial pathogens. Female BALB/C mice were infected by the intraperitoneal injection of 2.5×10^8 cells (LD90). Treatment started 2 hours post bacterial inoculation
E. coli ATCC 25922 was stored at −80° C. until use in this study. The bacterium was transferred onto Trypticase Soy Agar (TSA) plates and incubated for 18 h at 37° C. A suspension of the bacterium was prepared in PBS and added to sterile 5% hog mucin. An aliquot of the suspension was added to 5% hog gastric mucin to obtain the required concentration of inoculum (3.5×10^6 CFU/mL). Each mouse was inoculated with 0.5 mL of the appropriate inoculum preparation by IP injection. 2 hours later mice were treated with a single injection of the appropriate concentration of Gentamicin sulfate in dose 10 mg/kg (calculated by base).

In the next assay the test system is MAC. The following applies: 100 mg/kg IM five days a week for four weeks; cited from earlier work.
Assay [1] deals with Mycobacterium tuberculosis strain H37Rv (ATCC 27294). The experiment in a line: Tuberculosis model in BALB/c mice. It counts as in vivo. The following applies: for Survival rate, % D14: day 14; for Survival rate, % D28 / Bacterial count in lungs, log CFU D28: day 28; for Bacterial count in lungs, log CFU D28: 10.06 ± 0.304 at D1.
Setting [2] is: BALB/c mice, 100 mg/kg IP 2/week, cumulative 800 mg/kg SM base.
[3] abbreviates: BALB/c mice, 200 mg/kg IP 5/week, cumulative 4000 mg/kg SM base.

Counter-ions that a name gives are not always drawn.

Compound `COc1cccc2c1C(=O)c1c(O)c3c(c(O)c1C2=O)C[C@@](O)(C(=O)CO)C[C@@H]3O[C@H]1C[C@H](N)[C@H](O)[C@H](C)O1` [Doxorubicin in solution, Doxorubicin] came in with a survival rate in the assay with glioblastoma of 0%.
As to “Gentamicin sulfate [Gentamicin sulfate solution]”, the “Day of death after inoculation: 2 (number of deaths)” value in the assay with E. coli ATCC 25922 (10 mg/kg single injection, day 2) worked out at 3. In addition, the “Day of death after inoculation: 3 (number of deaths)” value with E. coli ATCC 25922 (10 mg/kg single injection, day 3) is recorded as 1. In the assay with E. coli ATCC 25922 (10 mg/kg single injection, day 4), the “Day of death after inoculation: 4 (number of deaths)” value amounted to 1. This compound displayed a Survival rates in the assay with E. coli ATCC 25922 (E.Coli induced septicemia in mice, untreated 11%) of 50%. In addition, the “No. dead/No. treated” value with E. coli ATCC 25922 (mice, 1.8 × 10^6 E. coli per mouse IP, single injection 10 mg/kg (as base) 2 hours later, observed six days) is 5/10.
On to `[H]/N=C(/N)N[C@H]1[C@H](O)[C@@H](O)[C@H](O[C@@H]2O[C@@H](C)[C@](O)(C=O)[C@H]2O[C@@H]2O[C@@H](CO)[C@H](O)[C@@H](O)[C@@H]2NC)[C@@H](N/C(N)=N\[H])[C@@H]1O` [Streptomycin], for which, in the assay on MAC, the “bacterial counts of MAC from spleen, lungs and liver” value is “significant reduction”.
Consider `[H]/N=C(/N)N[C@H]1[C@H](O)[C@@H](O)[C@H](O[C@@H]2O[C@@H](C)[C@](O)(C=O)[C@H]2O[C@@H]2O[C@@H](CO)[C@H](O)[C@@H](O)[C@@H]2NC)[C@@H](N/C(N)=N\[H])[C@@H]1O` [SM USP solution, Streptomycin sulfate], for which the survival rate is listed as 58% in assay [1] (800 mg cumulative dose of SM) and 92% in assay [1] (positive control, cumulative 4000 mg SM). Also, the “Survival rate, % D14” value in assay [1] (setting [2]) came out at 83%; in assay [1] (setting [3]), 92%. The “Survival rate, % D28” value in assay [1] (setting [2]) stood at 58%; in assay [1] (setting [3]), 92%. Also, the “Bacterial count in lungs, log CFU D28” value in assay [1] (BALB/c mice, 100 mg/kg IP 2/week) was determined as 8.37 ± 0.367 log CFU; in assay [1] (BALB/c mice, 200 mg/kg IP 5/week) it was 7.57 ± 0.268 log CFU. For the same compound, the “Bacterial count in lungs, log CFU D56” value in assay [1] (BALB/c mice, 200 mg/kg IP 5/week for 28 days, day 56) came to 8.86 ± 0.18 log CFU.
